# Test system: Acinetobacter baumannii (Ab23)
# Assay: MIC shift assay of antibiotics (broth microdilution)
# Assay type: cell-based
# Settings: fold shift of colistin MIC, nc = no changeover or no shift
# Procedure: Minimum inhibitory concentration (MIC) shift assays were performed to determine if the test compounds could alter the MIC of existing antibacterial drugs (e.g., ciprofloxacin and colistin) for E. coli, Acinetobacter baumannii, Klebsiella pneumoniae, Pseudomonas aeruginosa, and Enterobacter cloacae. The MIC shift assay is based on the standard broth microdilution MIC determination protocol of Wiegand et al, Nat Protoc. 3(2):163-75 (2008), with slight modifications that allow for the screening of up to seven test compounds in a single plate.
# On the day before an assay, bacteria were grown overnight in cation-adjusted Mueller Hinton broth (CAMHB; Teknova, Hollister, Calif.) at 37° C. in an orbital shaker and sub-cultured at a 1:200 dilution the following morning. The cells were grown to OD600=0.5 to 0.8 and then diluted to OD600=0.01. From a serial dilution of each antibiotic at (50 μL of 2× concentrated stock solutions) several concentrations were added to the wells of a sterile, transparent round-bottom 96-well plate (Phenix Research Products, Candler, N.C.), and diluted cells (50 μL) were added to the plates for a starting OD600 of 0.005. […] A row of wells lacking test compound but containing the antibiotic was used to determine the MIC of that antibiotic alone. A column of wells lacking both antibiotic and test compound served as a growth control, and an additional column containing only CAMHB was included as a sterile blank control.
# The plates were incubated for 18 to 20 h at 37° C. in an orbital shaker, and the cell density (OD600) was determined the following day in a microplate reader (PolarStar Optima, BMG Labtech). The MIC shift was determined by comparing the MIC of the antibiotic alone to the MIC of the antibiotic plus test compound.
"colistin MIC shift, Ab23 at (compd concentration) (compound concentration 4 μM)",Compound,other results
16x,CCN(CC)CCCC(C)Nc1nc(-c2cn(Cc3cccc(Cl)c3)c3c(Cl)cccc23)nc2c(C)cccc12 (racemic) [compound 578],
4x,CN(C)CCCNc1nc(-c2cn(Cc3ccccc3)c3c(Cl)cccc23)nc2c(-c3ccncc3)cccc12 [compound 571],
8x,Fc1ccc2c(/C=C/c3cc(Cl)c(Cl)c(Cl)c3)c[nH]c2c1 [compound 397],
16-32x,Clc1ccc(/C=C/c2c[nH]c3cc(Br)ccc23)cc1Cl [compound 367],
32x,CN(C)CC(=O)n1cc(/C=C/c2ccc(Cl)c(Cl)c2)c2cc(Br)ccc21 [362e],
8x,Clc1ccc(CCc2c[nH]c3ccc(Br)cc23)cc1Cl [compound 411],
16x,"FC(F)(F)c1ccc2c(-c3ccc(Cl)c(Cl)c3)n[nH]c2c1 [compound 390, 3-(3,4-dichlorophenyl)-6-(trifluoromethyl)-1H-indazole]",
64x,Cc1cccc2c(NCCCN(C)C)nc(-c3cc(-c4ccccc4C(F)(F)F)cc(C(F)(F)F)c3)nc12 [compound 509],
2x,Cc1cccc2c(NCCCN(C)C)nc(-c3cccc(-c4cc(Cl)cc(Cl)c4)c3)nc12 [compound 470],
64x,Cc1c(Cl)ccc2c(NCCCN(C)C)nc(-c3cc(Br)cc(C(F)(F)F)c3)nc12 [compound 511],
8x,CCN(CC)CCCC(C)Nc1nc(/C=C/c2ccc(Cl)c(Cl)c2)nc2c(C)cccc12 (stereo not drawn) [compound 313],
2-8x,CCN(CC)CCCC(C)Nc1nc(/C=C/c2ccc(Cl)c(Cl)c2)nc2c(Br)cccc12 (racemic) [compound 316],
32x,FC(F)(F)c1ccc2c(-c3ccc(Cl)c(Cl)c3)n[nH]c2c1 [compound 541],
16x,"FC(F)(F)c1ccc2c(-c3ccc(Cl)c(Cl)c3)nn(Cc3ccc(Cl)cc3)c2c1 [compound 391, 1-(4-chlorobenzyl)-3-(3,4-dichlorophenyl)-6-(trifluoromethyl)-1H-indazole]",
16x,Cc1cccc2c(NCCCN(C)C)nc(-c3cn(Cc4ccccc4)c4cc(Cl)ccc34)nc12 [compound 586],
16-64x (4 μM);,Clc1ccc2[nH]cc(/C=C/c3ccc(Cl)c(Cl)c3)c2c1 [compound 365],"colistin MIC shift, Ab23 at (compd concentration) (compound concentration 2 μM): ≧16x (2 μM)"
32x,CN(C)CCCNc1nc(-c2cccc(-c3ccc(Cl)c(Cl)c3)c2)nc2c(Cl)cccc12 [compound 488],
8x,CN(C)CCCNc1nc(-c2cc(Br)cc(C(F)(F)F)c2)nc2ccc(Br)cc12 [compound 515],

# Further lines, the compound ahead of its results:
Compound,"colistin MIC shift, Ab23 at (compd concentration) (compound concentration 4 μM)",other results
CN(C)CCCNc1nc(-c2cc(-c3ccccc3)cc(C(F)(F)F)c2)nc2c(Cl)cccc12 [compound 340],,"colistin MIC shift, Ab23 at (compd concentration) (compound concentration 2 μM): 8-16x"
Cc1cccc2c(NCCCN(C)C)nc(-c3cccc(Br)c3)nc12 [compound 455],,"colistin MIC shift, Ab23 at (compd concentration) (compound concentration 10 μM): 4x"
Cc1ccc(Cn2cc(-c3nc(NCCCN(C)C)c4cccc(C)c4n3)c3cccc(Cl)c32)cc1 [compound 573],16x,
CN(C)CCCNc1nc(/C=C/c2ccc(F)c(C(F)(F)F)c2)nc2c(C(F)(F)F)cccc12 [compound 332],16x,
Clc1ccc(-c2n[nH]c3cc(Br)ccc23)cc1Cl [compound 559],,"colistin MIC shift, Ab23 at (compd concentration) (compound concentration 10 μM): 8x"
CCN(CC)CCCC(C)Nc1nc(-c2cn(Cc3ccc(C)cc3)c3c(Cl)cccc23)nc2c(C)cccc12 (racemic) [compound 572],4x,
CN(C)CCCNc1nc(/C=C/c2ccc(F)c(Cl)c2)nc2c(C(F)(F)F)cccc12 [compound 329],8x,
Cc1cccc2c(NCCCN(C)C)nc(-c3cn(Cc4ccc(Cl)cc4)c4c(Cl)cccc34)nc12 [compound 577],16x,
FC(F)(F)c1cccc(-c2ccc3[nH]cc(-c4ccc(Cl)c(Cl)c4)c3c2)c1 [compound 438],2x,
Cc1cccc2c(NCCCN(C)C)nc(-c3cc(N4CCOCC4)cc(C(F)(F)F)c3)nc12 [compound 501],,"colistin MIC shift, Ab23 at (compd concentration) (compound concentration 10 μM): 8x"
CCN(CC)CCCNc1nc(-c2cc(Br)cc(C(F)(F)F)c2)nc2c(C)cccc12 [compound 352],,"colistin MIC shift, Ab23 at (compd concentration) (compound concentration 2 μM): 8-16x"
CCN(CC)CCCC(C)Nc1nc(-c2cc(N3CCOCC3)cc(C(F)(F)F)c2)nc2c(C)cccc12 (stereo not drawn) [compound 500],,"colistin MIC shift, Ab23 at (compd concentration) (compound concentration 10 μM): 4x"
Fc1ccc2c(/C=C/c3ccc(OC(F)(F)F)cc3)c[nH]c2c1 [compound 394],8x,
Cc1cccc2c(NCCCN(C)C)nc(-c3cn(Cc4ccccc4)c4ccc(Cl)cc34)nc12 [compound 587],,"colistin MIC shift, Ab23 at (compd concentration) (compound concentration 10 μM): 16x"
CCN(CC)CCCC(C)Nc1nc(/C=C/c2ccc(Cl)c(Cl)c2)nc2ccc(Cl)cc12 (racemic) [compound 317],2x,
"(S)-2-amino-1-(5-chloro-3-(3,4-dichlorophenyl)-1H-indol-1-yl)butan-1-one methanesulfonate salt [compound 460]",32x,
CNCCCNc1nc(-c2cn(Cc3ccccc3)c3c(Cl)cccc23)nc2c(C)cccc12 [compound 580],8x,
FC(F)(F)c1cc(Br)cc(-c2n[nH]c3cc(C(F)(F)F)ccc23)c1 [compound 548],,"colistin MIC shift, Ab23 at (compd concentration) (compound concentration 10 μM): 16x"
Cc1cccc2c(NCCCN3CCOCC3)nc(-c3cc(Br)cc(C(F)(F)F)c3)nc12 [compound 459],,"colistin MIC shift, Ab23 at (compd concentration) (compound concentration 10 μM): 8x"
Cc1cccc2c(NCCCN(C)C)nc(-c3cccc(C(F)(F)F)c3)nc12 [compound 499],,"colistin MIC shift, Ab23 at (compd concentration) (compound concentration 8 μM): 16x"
Fc1cc(-c2n[nH]c3cc(C(F)(F)F)ccc23)cc(C(F)(F)F)c1 [compound 550],,"colistin MIC shift, Ab23 at (compd concentration) (compound concentration 10 μM): 64x"
CN(C)CCCNc1nc(-c2cccc(-c3ccccc3)c2)nc2cc(C(F)(F)F)ccc12 [compound 480],4x,
N#Cc1cccc(-c2n[nH]c3cc(F)ccc23)c1 [compound 538],,"colistin MIC shift, Ab23 at (compd concentration) (compound concentration 10 μM): 1x"
CCN(CC)CCCC(C)Nc1nc(-c2cccc(-c3ccc(C(F)(F)F)c(F)c3)c2)nc2c(C)cccc12 (stereo not drawn) [compound 476],16x,
O=C(Nc1ccc(Cl)c(Cl)c1)c1c[nH]c2cc(Br)ccc12 [compound 424],,"colistin MIC shift, Ab23 at (compd concentration) (compound concentration 2 μM): 4x"
Cc1cccc2c(NCCCN3CCN(C)CC3)nc(-c3cc(Br)cc(C(F)(F)F)c3)nc12 [compound 354],,"colistin MIC shift, Ab23 at (compd concentration) (compound concentration 2 μM): 8-16x"
Cc1cccc2c(N(C)CCCN(C)C)nc(-c3cn(Cc4ccc(Cl)cc4)c4c(Cl)cccc34)nc12 [compound 582],8x,
Cc1cccc2c(NCCCN)nc(-c3cc(-c4ccccc4Cl)cc(C(F)(F)F)c3)nc12 [524m],128x,
FC(F)(F)c1cccc(-c2cccc(-c3n[nH]c4cc(C(F)(F)F)ccc34)c2)c1 [compound 529],,"colistin MIC shift, Ab23 at (compd concentration) (compound concentration 10 μM): 8x"
